In patent publication US11628159B2, “Cell-protective compounds and their use” (ETH ZURICH, priority 2017, dated 2023):
Entries after “also recorded” stand apart in the source; their conditions may differ. Read-outs that look alike come from different tables or passages of the source.

T1: GRK2 (Homo sapiens, UniProt P25098)
T1 construct: fused on or other part: hexahistidine tag
T1 sequence (P25098 1-669 limits assumed): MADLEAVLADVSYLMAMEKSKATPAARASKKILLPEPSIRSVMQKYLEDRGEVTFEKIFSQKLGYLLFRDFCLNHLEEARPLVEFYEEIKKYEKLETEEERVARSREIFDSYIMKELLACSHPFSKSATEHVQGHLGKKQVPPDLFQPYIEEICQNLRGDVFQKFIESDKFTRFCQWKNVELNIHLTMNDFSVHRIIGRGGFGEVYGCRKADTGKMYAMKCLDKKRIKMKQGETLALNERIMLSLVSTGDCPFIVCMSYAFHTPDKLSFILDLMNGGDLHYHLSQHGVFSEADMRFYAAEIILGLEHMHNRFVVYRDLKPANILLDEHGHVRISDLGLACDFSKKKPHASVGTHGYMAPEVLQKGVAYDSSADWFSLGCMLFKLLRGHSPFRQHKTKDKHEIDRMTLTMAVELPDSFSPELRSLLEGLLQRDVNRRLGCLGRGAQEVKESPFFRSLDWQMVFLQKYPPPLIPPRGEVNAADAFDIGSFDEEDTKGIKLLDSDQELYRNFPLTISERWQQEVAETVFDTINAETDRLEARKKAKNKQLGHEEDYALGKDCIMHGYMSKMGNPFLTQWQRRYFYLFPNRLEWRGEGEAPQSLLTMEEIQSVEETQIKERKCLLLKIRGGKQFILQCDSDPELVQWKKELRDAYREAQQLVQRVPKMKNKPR


Columns and labels:
GRK2 = molecular target: T1, GRK2; assay: In vitro phosphorylation assay: GRK2-mediated phosphorylation of SRSF1 with purified proteins; format: biochemical; conditions: for IC50: purified proteins
Protocol: The GRK2-mediated phosphorylation of SRSF1 was determined with purified proteins in the presence of increasing concentrations of paroxetine or different small molecule compounds. SRSF1 phosphorylation is presented as % of control, which is the SRSF1 phosphorylation in the absence of inhibitor.
Recombinant human GRK2 protein and GRK2-S670A protein was expressed in and purified from Spodoptera frugiperda (Sf9) cells by the baculoviral expression system. […] Sf9 cells were infected with recombinant baculoviruses at an MOI of 2-3, 48 h after infection cells were harvested by centrifugation, lysed with lysis buffer (300 mM NaCl, 50 mM HEPES, pH 7.5 supplemented with 1% NP40, 1 mM PMSF and protease inhibitor cocktail) and applied to Ni-NTA chromatography. After overnight incubation at 4° C., unbound proteins were removed by washing with lysis buffer (20× column volumes) followed by 1× column volume of 30 mM imidazole-containing lysis buffer. Bound GRK2 was eluted by 300 mM imidazole in lysis buffer, desalted by PD10 column chromatograpy, supplemented with 20% glycerol and stored at −80° C. for further use.
Protein-expressing bacteria were collected by centrifugation, frozen in liquid nitrogen and thawed on ice in lysis buffer (8 M urea, 300 mM NaCl, 50 mM HEPES, 10 mM imidazole, pH 7.5), which was supplemented with 2-mercaptoethanol (0.7 ml/L) freshly before use (10 ml of lysis buffer for a bacterial pellet from 200 ml of culture medium). The bacterial lysate was incubated for 1 h at room temperature, sonicated and centrifuged for 15 min at 4000×g at 4° C. The supernatant was applied to the Ni-NTA column matrix prewashed with 20 ml of lysis buffer. […] Finally, proteins were eluted with elution buffer (300 mM NaCl, 50 mM HEPES, 500 mM imidazole, pH 7.5, supplemented freshly with 0.7 ml/L 2-mercaptoethanol). Buffer of eluted proteins was exchanged to 150 mM NaCl, 50 mM HEPES (pH 7.5) by PD10 column chromatography.
Recombinant proteins were used for an in vitro phosphorylation assay with GRK2 and GRK2-S670A. […] After an incubation for 30 min at 30° C., the reaction was stopped by the addition of 5×SDS-Laemmli buffer. Proteins were separated by SDS-PAGE and subjected to autoradiography. […] After an incubation for 30-60 min at 30° C., the phosphorylation was stopped by the addition of 5 volumes of ice-cold reaction buffer. The reaction mixtures were immediately applied to glass fiber filters (GF/C, WHATMAN™, GE Healthcare Life Sciences, Glattbrugg, Switzerland). After three washing steps with 5 ml of reaction buffer, filter-bound radioactivity was determined in a β-counter.

[1] = test system: GRK2-mediated phosphorylation of SRSF1/Srsf1; assay: Immunoblot of SRSF1/Srsf1 phosphorylation in isolated neonatal cardiomyocytes from Tg-SRSF1 mice; format: cell-based, mouse; conditions: 10 microM, 60 h, relative to vehicle
Protocol: A, The GRK2-mediated phosphorylation of SRSF1/Srsf1 was determined by immunoblot in lysates from isolated neonatal cardiomyocytes from Tg-SRSF1 mice after incubation for 60 h with 10 microM of paroxetine, 1-(1,3-benzodioxol-5-yl)-4-(cyclopropane-carbonyl)-3-hydroxy-2-phenyl-2H-pyrrol-5-one (“Compound-1”) or 4-(1,3-benzodioxol-5-yl)pyrimidine (“Compound-4”) relative to vehicle-treated control (“C”) cardiomyocytes. B, Immunoblot detection of GRK2-mediated phosphorylation of SRSF1 (pSRSF1) was performed with lysates from HEK (human embryonic kidney) cells incubated for 60 h with 10 microM of 4-(1,3-benzodioxol-5-yl)pyrimidine (“Compound-4”), 1-(1,3-benzodioxol-5-ylmethyl)-5-(4-chlorophenyl)-2-methyl-pyrrole-3-carboxamide (“Compound-24”) or (4R)-N3-(1,3-benzodioxol-5-ylmethyl)-N4-[[3-(trifluoromethyl)phenyl]-methyl]pyrrolidine-3,4-dicarboxamide (“Compound-5”) relative to vehicle-treated controls (“C”).
Briefly, the hearts were dissected out from 2-3 day-old mice, atria and aorta were removed, and the hearts were transferred into sterile buffer A (137 mM NaCl, 5.36 mM KCl, 0.81 mM MgSO4, 5.55 mM dextrose, 0.44 mM KH2PO4, 0.34 mM Na2HPO4, 20 mM HEPES, 100 U/ml penicillin, 100 microg/ml streptomycin, pH 7.4). […]

[2] = read-out: IC50 value, inhibition of GRK2-mediated SRSF1 phosphorylation

| IC50 value lower than that of paroxetine (GRK2; GRK2-mediated SRSF1 phosphorylation) | IC50 (GRK2; n=4, read-out: IC50 value, inhibition of GRK2-mediated phosphorylation of SRSF1) [nM] | IC50 (GRK2; [2]) [nM] | Molecule | SRSF1/Srsf1 phosphorylation in isolated Tg-SRSF1 cardiomyocytes [1] | Inhibition of the in vitro phosphorylation of SRSF1 by GRK2 (GRK2; result in words) |
| --- | --- | --- | --- | --- | --- |
| more than 5 fold | 450 | 450 | O=C(C1=C(O)C(c2ccccc2)N(c2ccc3c(c2)OCO3)C1=O)C1CC1 (stereo not shown) [Compound-1, 1-(1,3-benzodioxol-5-yl)-4-(cyclopropane-carbonyl)-3-hydroxy-2-phenyl-2H-pyrrol-5-one] | decreased | – |
| – | – | 1870 | c1cc(-c2ccc3c(c2)OCO3)ncn1 [Compound-4, 4-(1,3-benzodioxol-5-yl)pyrimidine] | decreased | – |
| – | – | – | RKIP: raf kinase inhibitor protein, a dual-specific GRK2 and Raf kinase inhibitor (protein, UniProt P30086 2-187, looked up) Phosphatidylethanolamine-bindi …: PVDLSKWSGPLSLQEVDEQPQHPLHVTYAGAAVDELGKVLTPTQVKNRPTSISWDGLDSGKLYTLVLTDPDAPSRKDPKYREWHHFLVVNMKGNDISSGTVLSDYVGSGPPKGTGLHRYVWLVYEQDRPLKCDEPILSNRSGDHRGKFKVASFRKKYELRAPVAGTCYQAEWDDYVPKLYEQLSGK | – | does not inhibit; also recorded: did not inhibit |
